Results: patent publication US12691107B2, “Methods for the treatment and prevention of lung infections caused by gram-positive bacteria, fungus, or virus by administration of tafenoquine” (priority 2020, dated 2026)
“And” between values parts separate entries of the source, which are not always exact repeats. Identical values can stand only once. Like-named read-outs stand apart in the source and are kept apart here.

Columns and labels:
Candida albicans = experiment: Antifungal MIC (RPMI-1640 microdilution); assay type: cell-based
Candida auris = experiment: Antifungal MIC (RPMI-1640 microdilution); assay type: cell-based
Candida guilliermondii = experiment: Antifungal MIC (RPMI-1640 microdilution); assay type: cell-based; conditions: Meyerozyma guilliermondii
Altenaria sp. = experiment: Antifungal MIC (RPMI-1640 microdilution); assay type: cell-based; conditions: isolate Alt1
Histoplasma capsulatum = experiment: microbe, parasite or virus in culture; assay type: cell-based
P. aeruginosa = experiment: Antibacterial MIC (broth microdilution); assay type: cell-based; conditions: Pseudomonas aeruginosa
[1] = Tissue distribution of [14C]radio-labeled tafenoquine in male rats; assay type: in vivo, rat; conditions: for concentration of tafenoquine in lung: 25 mg base/kg single oral dose
Procedure: FIG. 3: Concentration of tafenoquine in microgram equivalents per g of tissue in various tissues of male rats 12 h following administration of [14C]radio-labeled tafenoquine (25 mg base/kg). Radioactivity was measured in the combusted organs of euthanized rats by liquid scintillation analysis.
In this study, a single oral dose of [14C]radio-labeled tafenoquine (25 mg base/kg) was given to 60 male rats, and then groups of 5 animals were killed at time points ranging from 30 minutes to 120 hours post-dose. Radioactivity in the combusted organs of killed animals was measured by liquid scintillation analysis. When expressed as microgram equivalents tafenoquine per gram of tissue, the concentration of tafenoquine in lung were at 0.5, 1, 6, 12, 24, 48, 72, 96, and 120 hours post-administration were 1.21, 6.43, 133, 154, 136, 119, 83.7, 59.4, and 44.4, respectively.

[2] = Maximum tolerated dose in uninfected immunosuppressed mice; assay type: in vivo, ICR mice
Procedure: Tafenoquine succinate powder was supplied in the form of the commercial API used to make 100 mg ARAKODA tablets [therefore it was >99.8% pure and contain no excipients]. Four dosing solutions were prepared, and the concentrations of tafenoquine succinate were adjusted based on the mean mouse weight at the start of the study in order to achieve dosing groups of 2.5, 5, 10 and 20 mg/kg tafenoquine base respectively [note that tafenoquine succinate contains 79.6% tafenoquine base].
The dosing solutions was in the form of a tafenoquine succinate suspension in the drug vehicle. A large batch [>1 liter] of the drug vehicle [0.2% v/v Tween 80 in 1% v/v methyl cellulose in sterile water] was prepared at least 96 h before the first dose was administered and kept refrigerated [4° C.]. During preparation, the batch of drug vehicle was stirred for sufficiently long to ensure a uniform composition [4 to 24 h of stirring with a magnetic stir bar may be required].
Dosing solutions were prepared no more than 72 h prior to the first dose. Tafenoquine powder was weighed out separately for each dosing solution. After weighing, tafenoquine was transferred into an appropriately sized, transparent tube [or equivalent] containing the desired volume of drug vehicle, and gently shaken to allow development of a uniform suspension without bubble formation. The tubes containing dosing solutions were stored at [4° C.] wrapped in aluminum foil until use. Prior to use, the dosing solutions were inverted gently as required to resuspend the tafenoquine and allowed to warm temperature. Use of transparent tubes allowed for visual confirmation that an even resuspension of the drug has had been achieved prior to dosing. The above resuspension procedure was conducted the first time 48 h prior to the first day of dosing to confirm there have been no preparation issues.
Mouse Strain—Outbred male ICR mice weighing ~28 grams were used. Mice were housed 5 per cage and had access to food and water ad libitum.
Immune Status—Standard neutropenic immunosuppression regimen in the PK/dose tolerability study was used, which was also used in the in vivo efficacy model. This regimen utilizes cyclophosphamide and cortisone acetate to render animals immunosuppressed prior to aerosolized inoculation. • Cyclophosphamide (25 mg/mL) was dissolved by the addition of sterile water to the vial. This was administered as a dose of 250 mg/kg two days prior to inoculation. […]
Mouse Assessment—Throughout the studies, mice were observed multiple times per day and their overall health determined. […]

[3] = female, rat, in vivo, 2 mg/kg
Pneumocystis = conditions: cited from earlier work; for minimum dose required to reduce parasitemia nearly to zero: two to three week period
Babesia = conditions: mice; cited from earlier work

SMILES: COc1cc(C)c2c(Oc3cccc(C(F)(F)F)c3)c(OC)cc(NC(C)CCCN)c2n1.O=C(O)CCC(=O)O (centres unmarked) [Tafenoquine Succinate]
- MIC50 (Candida albicans; ATCC90028, read-out: MIC 50% inhibition, isolate ATCC 90028): 4 µg/mL
- MIC (Candida albicans; ATCC90028, read-out: MIC 100% inhibition, isolate ATCC 90028): 4 µg/mL
- MIC50 (Candida albicans; read-out: MIC 50% inhibition, isolate CA3): 4 µg/mL
- MIC50 (Candida albicans; read-out: MIC 50% inhibition, isolate SC5314): 8 µg/mL
- MIC (Candida albicans; read-out: MIC 100% inhibition, isolate CA3): 4 µg/mL
- MIC (Candida albicans; read-out: MIC 100% inhibition, isolate SC5314): 8 µg/mL
- MIC50 (Candida auris; Candidozyma auris, read-out: MIC 50% inhibition, isolate DI17-46): 4 µg/mL
- MIC50 (Candida auris; Candidozyma auris, read-out: MIC 50% inhibition, isolate DI17-47): 4 µg/mL
- MIC50 (Candida auris; Candidozyma auris, read-out: MIC 50% inhibition, isolate DI17-48): 2 µg/mL
- MIC (Candida auris; Candidozyma auris, read-out: MIC 100% inhibition, isolate DI17-47): 4 µg/mL
- MIC 100% inhibition (Candida auris; isolate DI17-46): 4 µg/mL
- MIC 100% inhibition (Candida auris; isolate DI17-48): 4 µg/mL
- MIC50 (Candida guilliermondii; read-out: MIC 50% inhibition, isolate Cgui1): 2 µg/mL
- MIC50 (Candida guilliermondii; read-out: MIC 50% inhibition, isolate Cgui2): 2 µg/mL
- MIC50 (Candida guilliermondii; read-out: MIC 50% inhibition, isolate Cgui3): 4 µg/mL
- MIC (Candida guilliermondii; read-out: MIC 100% inhibition, isolate Cgui1): 4 µg/mL
- MIC (Candida guilliermondii; read-out: MIC 100% inhibition, isolate Cgui2): 2 µg/mL
- MIC (Candida guilliermondii; read-out: MIC 100% inhibition, isolate Cgui3): 4 µg/mL
- MIC50 (Altenaria sp.; read-out: MIC 50% inhibition): 2 µg/mL
- MIC (Altenaria sp.; read-out: MIC 100% inhibition): 4 µg/mL
- MIC50 (Histoplasma capsulatum; read-out: MIC 50% inhibition, isolate HC1): 4 µg/mL
- MIC50 (Histoplasma capsulatum; read-out: MIC 50% inhibition, isolate HC2): 2 µg/mL
- MIC50 (Histoplasma capsulatum; read-out: MIC 50% inhibition, isolate HC3): 8 µg/mL
- MIC (Histoplasma capsulatum; read-out: MIC 100% inhibition, isolate HC1): 4 µg/mL
- MIC (Histoplasma capsulatum; read-out: MIC 100% inhibition, isolate HC2): 4 µg/mL
- MIC (Histoplasma capsulatum; read-out: MIC 100% inhibition, isolate HC3): 8 µg/mL
- MIC (P. aeruginosa; ATCC27853, isolate ATCC 27853): > 64 µg/mL
- MIC (P. aeruginosa; isolate AR-230): > 64 µg/mL
- MIC (P. aeruginosa; isolate J4242): > 64 µg/mL

SMILES: COc1cc(C)c2c(Oc3cccc(C(F)(F)F)c3)c(OC)cc(NC(C)CCCN)c2n1 (centres unmarked) [Tafenoquine, N(4)-[2,6-Dimethoxy-4-methyl-5-[3-(trifluoromethyl)phenoxy]quinolin-8-yl]pentane-1,4-diamine]
- concentration of tafenoquine in lung ([1]; 0.5 hours post-administration): 1.21 microgram equivalents tafenoquine per gram of tissue
- concentration of tafenoquine in lung ([1]; 1 hour): 6.43 microgram equivalents tafenoquine per gram of tissue
- concentration of tafenoquine in lung ([1]; 6 hours): 133 microgram equivalents tafenoquine per gram of tissue
- concentration of tafenoquine in lung ([1]; 12 hours): 154 microgram equivalents tafenoquine per gram of tissue
- concentration of tafenoquine in lung ([1]; 24 hours): 136 microgram equivalents tafenoquine per gram of tissue
- concentration of tafenoquine in lung ([1]; 48 hours): 119 microgram equivalents tafenoquine per gram of tissue
- concentration of tafenoquine in lung ([1]; 72 hours): 83.7 microgram equivalents tafenoquine per gram of tissue
- concentration of tafenoquine in lung ([1]; 96 hours): 59.4 microgram equivalents tafenoquine per gram of tissue
- concentration of tafenoquine in lung ([1]; 120 hours): 44.4 microgram equivalents tafenoquine per gram of tissue
- lung:blood concentration ratio ([1]; rat): 250
- ratio of lung:plasma concentrations ([1]; rat): ~650
- tissue accumulation ([1]; rat, FIG. 3): accumulate in lung more than any other tissue in the body
- mice moribund prior to the study endpoint ([2]; 10 mg/kg group): 2 of 21
- mice moribund prior to the study endpoint ([2]; 20 mg/kg group): 4 of 21
- tolerability ([2]; 2.5 and 5.0 mg/kg oral, daily): well-tolerated
- mouse weights on days 7/8 versus vehicle control ([2]; higher dose groups (10 and 20 mg/kg)): these differences were not significant
- Estimate of plasma concentration following a single dose of 2 mpk in rats [3]: 35.84 ng/mL
- minimum dose required to reduce parasitemia nearly to zero (Pneumocystis; prophylaxis, once every 4 days orally): 4 mg/kg
- Dose in female rats required to exhibit a statistically significant impairment of Pneumocystis replication (Pneumocystis; treatment modality): 2 mpk q 4 days and 2 mpk q 4 mpk q 4 days
- minimum dose required to reduce parasitemia nearly to zero (Pneumocystis; treatment, daily orally): 4 mg/kg/day
- dose clearing Babesia parasitemia (Babesia): 20 mg/kg
